Results: US11795460B2, “Compositions and methods for TTR gene editing and treating ATTR amyloidosis” (Intellia Therapeutics, Inc., priority 2017, dated 2023)

Assays:
[1] = test system: TTR; assay: TTR editing in primary human hepatocytes electroporated with Spy Cas9 protein loaded with dgRNAs (Table 7); assay type: cell-based; details: dgRNA electroporated with Spy Cas9 protein (RNP)
Description: (§1) Primary liver hepatocytes. Primary human liver hepatocytes (PHH) and primary cynomolgus liver hepatocytes (PCH) (Gibco) were cultured per the manufacturer's protocol (Invitrogen, protocol 11.28.2012). In brief, the cells were thawed and resuspended in hepatocyte thawing medium with supplements (Gibco, Cat. CM7000) followed by centrifugation at 100 g for 10 minutes for human and 80 g for 4 minutes for cyno. The supernatant was discarded and the pelleted cells resuspended in hepatocyte plating medium plus supplement pack (Invitrogen, Cat. A1217601 and CM3000). Cells were counted and plated on Bio-coat collagen I coated 96-well plates (ThermoFisher, Cat. 877272) at a density of 33,000 cells/well for human or 60,000 cells/well for cyno (or 65,000 cells/well when assaying effects on TTR protein, described further below). Plated cells were allowed to settle and adhere for 6 or 24 hours in a tissue culture incubator at 37° C. and 5% CO2 atmosphere. After incubation cells were checked for monolayer formation and media was replaced with hepatocyte culture medium with serum-free supplement pack (Invitrogen, Cat. A1217601 and CM4000).
(§2) […] formation was performed prior to electroporation or transfection of Spy Cas9 protein loaded with guide RNAs (RNPs) onto cells. For dual guide (dgRNAs), individual crRNA and trRNA was pre-annealed by mixing equivalent amounts of reagent and incubating at 95° C. for 2 min and cooling to room temperature. Single guide (sgRNAs) were boiled at 95° C. for 2 min and cooling to room temperature. The boiled dgRNA or sgRNA was incubated with Spy Cas9 protein in Optimem for 10 minutes at room temperature to form a ribonucleoprotein (RNP) complex.
For RNP electroporation into primary human and cyno hepatocytes, the cells are thawed and resuspended in Lonza electroporation Primary Cell P3 buffer at a concentration of 2500 cells per μL for human hepatocytes and 3500 cells per μL for cyno hepatocytes. A volume of 20 μL of resuspended cells and 5 μL of RNP are mixed together per guide. 20 μL of the mixture is placed into a Lonza electroporation plate. The cells were electroporated using the Lonza nucleofector with the preset protocol EX-147. Post electroporation, the cells are transferred into a Biocoat plate containing pre-warmed maintenance media and placed in a tissue culture incubator at 37° C. and 5% CO2.
(§3) Transfected cells were harvested post-transfection at 24, 48, or 72 hours. The genomic DNA was extracted from each well of a 96-well plate using 50 μL/well BuccalAmp DNA Extraction solution (Epicentre, Cat. QE09050) per manufacturer's protocol. All DNA samples were subjected to PCR and subsequent NGS analyses, as described herein.
(§4) To quantitatively determine the efficiency of editing at the target location in the genome, sequencing was utilized to identify the presence of insertions and deletions introduced by gene editing.
(§5) Primers were designed around the target site within the gene of interest (e.g. TTR), and the genomic area of interest was amplified.
(§6) Additional PCR was performed per the manufacturer's protocols (Illumina) to add chemistry for sequencing. The amplicons were sequenced on an Illumina MiSeq instrument. The reads were aligned to a reference genome (e.g., the human reference genome (hg38), the cynomologus reference genome (mf5), the rat reference genome (rn6), or the mouse reference genome (mm10)) after eliminating those having low quality scores. The resulting files containing the reads were mapped to the reference genome (BAM files), where reads that overlapped the target region of interest were selected and the number of wild type reads versus the number of reads which contain an insertion, substitution, or deletion was calculated.
The editing percentage (e.g., the “editing efficiency” or “percent editing” or “indel frequency”) is defined as the total number of sequence reads with insertions/deletions (“indels”) or substitutions over the total number of sequence reads, including wild type. […]

[2] = test system: TTR; assay: TTR editing in primary human hepatocytes transfected with Spy Cas9 mRNA and dgRNAs (Table 9); assay type: cell-based; details: dgRNA co-transfected with Spy Cas9 mRNA (SEQ ID NO:2)
Description: as §1
Lipofectamine RNAiMax (ThermoFisher, Cat. 13778150) based transfections were conducted as per the manufacturer's protocol. Cells were sequentially transfected with a lipoplex containing Spy Cas9 mRNA (100 ng), Lipofectamine RNAiMax (0.4 μL/well) and OptiMem followed by a separate lipoplex containing crRNA (25 nM) and tracer RNA (25 nM) or sgRNA (25 nM), Lipofectamine RNAiMax (0.4 μL/well) and OptiMem.
as §3, §4, §5, §6
(§7) The editing percentage (e.g., the “editing efficiency” or “percent editing” or “indel frequency”) is defined as the total number of sequence reads with insertions/deletions (“indels”) or substitutions over the total number of sequence reads, including wild type.
(§8) Guides in dgRNA format targeting human TTR and the cynomologus matched sequences were delivered to HEK293 Cas9, HUH7 and HepG2 cell lines, as well as primary human hepatocytes and primary cynomolgus monkey hepatocytes as described in Example 1. Percent editing was determined for crRNAs comprising each guide sequence across each cell type and the guide sequences were then rank ordered based on highest % edit. The screening data for the guide sequences in Table 1 in all five cell lines are listed below (Table 4 through 11).

[3] = test system: TTR; assay: TTR editing in primary human hepatocytes transfected with Spy Cas9 protein (RNP) loaded with dgRNAs (Table 8); assay type: cell-based; details: dgRNA transfected with Spy Cas9 protein (RNP)
Description: as §1, §2
For RNP lipoplex transfections, cells were transfected with Lipofectamine RNAiMAX (ThermoFisher, Cat. 13778150) per the manufacturer's protocol. Cells were transfected with an RNP containing Spy Cas9 (10 nM), individual guide (10 nM), tracer RNA (10 nM), Lipofectamine RNAiMAX (1.0 μL/well) and OptiMem. RNP formation was performed as described above.
as §3, §4, §5, §6, §7
Guides in dgRNA format targeting human TTR and the cynomologus matched sequences were delivered to HEK293 Cas9, HUH7 and HepG2 cell lines, as well as primary human hepatocytes and primary cynomolgus monkey hepatocytes as described in Example 1. […]

[4] = test system: TTR; assay: TTR editing in HepG2 cells transfected with Spy Cas9 mRNA and dgRNAs (Table 6); assay type: cell-based, human; details: HepG2 cells co-transfected with Spy Cas9 mRNA (SEQ ID NO:2) and dgRNAs
Description: HepG2 cell line. The human hepatocellular carcinoma cell line HepG2 (American Type Culture Collection, Cat. HB-8065) was cultured in DMEM media supplemented with 10% fetal bovine serum. Cells were counted and plated on Bio-coat collagen I coated 96-well plates (ThermoFisher, Cat. 877272) at a density of 10,000 cells/well in a 96-well plate 24 hours prior to transfection. Cells were transfected with Lipofectamine 2000 (ThermoFisher, Cat. 11668019) per the manufacturer's protocol. Cells were sequentially transfected with lipoplex containing Spy Cas9 mRNA (100 ng), Lipofectamine 2000 (0.2 μL/well) and OptiMem followed by a separate lipoplex containing individual crRNA (25 nM), tracer RNA (25 nM), Lipofectamine 2000 (0.2 μL/well) and OptiMem.
as §3, §4, §5, §6, §7, §8

[5] = test system: TTR; assay: TTR editing in HUH7 cells transfected with Spy Cas9 mRNA and dgRNAs (Table 5); assay type: cell-based, human; details: HUH7 cells co-transfected with Spy Cas9 mRNA (SEQ ID NO:2) and dgRNAs
Description: HUH7 cell line. The human hepatocellular carcinoma cell line HUH7 (Japanese Collection of Research Bioresources Cell Bank, Cat. JCRB0403) was cultured in DMEM media supplemented with 10% fetal bovine serum. Cells were plated on at a density of 15,000 cells/well in a 96-well plate 20 hours prior to transfection. Cells were transfected with Lipofectamine MessengerMAX (ThermoFisher, Cat. LMRNA003) per the manufacturer's protocol. Cells were sequentially transfected with a lipoplex containing Spy Cas9 mRNA (100 ng), MessengerMAX (0.3 μL/well) and OptiMem followed by a separate lipoplex containing individual crRNA (25 nM), tracer RNA (25 nM), MessengerMAX (0.3 μL/well) and OptiMem.
as §3, §4, §5, §6, §7, §8

[6] = test system: TTR; assay: TTR editing in HEK293_Cas9 cells transfected with dgRNAs (Table 4); assay type: cell-based, human; details: HEK293_Cas9 cells (constitutively express Spy Cas9) transfected with dgRNAs
Description: HEK293 Cas9 cell line. The human embryonic kidney adenocarcinoma cell line HEK293 constitutively expressing Spy Cas9 (“HEK293_Cas9”) was cultured in DMEM media supplemented with 10% fetal bovine serum and 500 μg/ml G418. Cells were plated at a density of 10,000 cells/well in a 96-well plate 24 hours prior to transfection. Cells were transfected with Lipofectamine RNAiMAX (ThermoFisher, Cat. 13778150) per the manufacturer's protocol. Cells were transfected with a lipoplex containing individual crRNA (25 nM), trRNA (25 nM), Lipofectamine RNAiMAX (0.3 μL/well) and OptiMem.
as §3, §4, §5, §6, §7, §8

AAAUCUUACUGGAAGGCACU (tested as dual guide RNA, chemistry not given here) [CR005306]
Avg % Deletion [1]: 1.37% | Avg % Edit [1]: 9.43% | Avg % Insert [1]: 8.07% | Avg % Deletion [2]: 2.87% | Avg % Edit [2]: 9.97% | Avg % Insert [2]: 7.13% | Avg % Deletion [3]: 2.57% | Avg % Edit [3]: 18.81% | Avg % Insert [3]: 16.24% | Avg % Deletion [4]: 2.87% | Avg % Edit [4]: 24.07% | Avg % Insert [4]: 21.20%

AAUGGUGUAGCGGCGGGGGC (tested as dual guide RNA, chemistry not given here) [CR003375]
Avg % Deletion [1]: 0.07% | Avg % Edit [1]: 1.33% | Avg % Insert [1]: 1.27% | Avg % Deletion [2]: 0.03% | Avg % Edit [2]: 1.27% | Avg % Insert [2]: 1.23% | Avg % Deletion [5]: 2.25% | Avg % Edit [5]: 2.38% | Avg % Insert [5]: 0.26% | Avg % Deletion [3]: 0.11% | Avg % Edit [3]: 5.04% | Avg % Insert [3]: 4.93% | Avg % Deletion [4]: 0.10% | Avg % Edit [4]: 2.06% | Avg % Insert [4]: 1.96% | Avg % Deletion [6]: 10.85% | Avg % Edit [6]: 11.63% | Avg % Insert [6]: 0.78%

ACCUGGGAGCCAUUUGCCUC (tested as dual guide RNA, chemistry not given here) [CR003354]
Avg % Deletion [1]: 0.03% | Avg % Edit [1]: 2.50% | Avg % Insert [1]: 2.43% | Avg % Deletion [2]: 0.13% | Avg % Edit [2]: 2.97% | Avg % Insert [2]: 2.87% | Avg % Deletion [5]: 11.46% | Avg % Edit [5]: 12.27% | Avg % Insert [5]: 1.25% | Avg % Deletion [3]: 0.23% | Avg % Edit [3]: 10.31% | Avg % Insert [3]: 10.07% | Avg % Deletion [4]: 0.53% | Avg % Edit [4]: 5.36% | Avg % Insert [4]: 4.84% | Avg % Deletion [6]: 15.90% | Avg % Edit [6]: 18.46% | Avg % Insert [6]: 2.56%

CACAUGCACGGCCACAUUGA (tested as dual guide RNA, chemistry not given here) [CR003350]
Avg % Deletion [1]: 5.73% | Avg % Edit [1]: 28.13% | Avg % Insert [1]: 22.40% | Avg % Deletion [2]: 10.33% | Avg % Edit [2]: 26.63% | Avg % Insert [2]: 16.33% | Avg % Deletion [5]: 41.64% | Avg % Edit [5]: 52.91% | Avg % Insert [5]: 13.43% | Avg % Deletion [3]: 5.07% | Avg % Edit [3]: 24.84% | Avg % Insert [3]: 19.77% | Avg % Deletion [4]: 4.44% | Avg % Edit [4]: 29.60% | Avg % Insert [4]: 25.16% | Avg % Deletion [6]: 16.77% | Avg % Edit [6]: 22.31% | Avg % Insert [6]: 5.54%

CGGCAAUGGUGUAGCGGCGG (tested as dual guide RNA, chemistry not given here) [CR003376]
Avg % Deletion [1]: 0.03% | Avg % Edit [1]: 1.90% | Avg % Insert [1]: 1.87% | Avg % Deletion [2]: 0.13% | Avg % Edit [2]: 2.83% | Avg % Insert [2]: 2.73% | Avg % Deletion [5]: 18.55% | Avg % Edit [5]: 19.42% | Avg % Insert [5]: 1.37% | Avg % Deletion [3]: 0.14% | Avg % Edit [3]: 5.00% | Avg % Insert [3]: 4.86% | Avg % Deletion [4]: 0.24% | Avg % Edit [4]: 14.41% | Avg % Insert [4]: 14.16% | Avg % Deletion [6]: 26.81% | Avg % Edit [6]: 28.16% | Avg % Insert [6]: 1.35%

GCGGCGGGGGCCGGAGUCGU (tested as dual guide RNA, chemistry not given here) [CR003374]
Avg % Deletion [1]: 0.10% | Avg % Edit [1]: 0.80% | Avg % Insert [1]: 0.70% | Avg % Deletion [2]: 0.03% | Avg % Edit [2]: 0.27% | Avg % Insert [2]: 0.27% | Avg % Deletion [5]: 2.87% | Avg % Edit [5]: 3.10% | Avg % Insert [5]: 0.45% | Avg % Deletion [3]: 0.14% | Avg % Edit [3]: 2.65% | Avg % Insert [3]: 2.52% | Avg % Deletion [4]: 0.31% | Avg % Edit [4]: 5.43% | Avg % Insert [4]: 5.12% | Avg % Deletion [6]: 10.10% | Avg % Edit [6]: 10.91% | Avg % Insert [6]: 0.81%
